In US7078400B2, “20-HETE synthase inhibitor” (Taisho Pharmaceutical Co., Ltd., priority 1999, dated 2006):

Assays:
[1] = tested on: 20-HETE synthase originated from rat kidney microsome; assay: Inhibitory effect of 20-HETE synthase originated from rat kidney microsome; assay type: biochemical; details: for Inhibition rate (1 μM): 1 μM of the subject compound, 20-HETE production without compound set to 100%; for IC50: concentration at which production of 20-HETE was inhibited to 50%
How it was run: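 Kidney microsomes from 6-week male spontaneously hypertensive rats were used with tritium-arachidonic acid and NADPH. 20-HETE was quantified by radio-HPLC on a C18 column.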

| Compound | melting point | IC50 [1] | Inhibition rate (1 μM) [1] |
| --- | --- | --- | --- |
| O/N=C/Nc1ccc(OCCc2cccs2)cc1 [Comp. 422] | 132 to 134 °C | 1.5 nM | 121.6 |
| O/N=C/Nc1ccc(OCCc2ccsc2)cc1 [Comp. 423] | 132 to 134.5 °C | 2.2 nM | 118.4 |
| CCOC(=O)CCCCCOc1ccc(N/C=N/O)cc1 [Comp. 424] | 102 to 103.5 °C | 1.5 nM |  |
| CC(=O)OCCCCCOc1ccc(N/C=N/O)cc1 [Comp. 426] | 101.5 to 104 °C | 5.1 nM |  |
| CC(=O)OCC(COc1ccc(N/C=N/O)cc1)OC(C)=O (centres unmarked) [Comp. 435] | 133 to 134.5 °C | 2.2 nM |  |
| OCC(O)COc1ccc(N/C=N/O)cc1 (centres unmarked) [Comp. 436] | 140.5 to 141 °C | 79.2 nM |  |
| CC(C)Sc1ccc(N/C=N/O)cc1 [Comp. 439] | 144.1 to 144.2 °C | 2.9 nM | 92.3 |
| O/N=C/Nc1ccc(SCc2ccccc2)cc1 [Comp. 441, N-[4-(benzylthio)phenyl]-N′-hydroxyformamidine] | 166 °C |  | 94.2 |
| OCCSc1ccc(N/C=N/O)cc1 [Comp. 444] | 121 °C | 12.1 nM | 100.7 |
| CN(C)CCSc1ccc(N/C=N/O)cc1 [Comp. 445] | 112 °C |  | 95.1 |
| O/N=C/Nc1ccc(SCc2ccco2)cc1 [Comp. 448] | 125 to 126.5 °C | 1.9 nM | 109.8 |
| CCC(C)Sc1ccc(N/C=N/O)cc1 (centres unmarked) [Comp. 449] | 119 to 120.5 °C | 1.8 nM | 105.1 |
| CC(C)(C)Sc1ccc(N/C=N/O)cc1 [Comp. 456] | 143 to 145 °C | 6.3 nM | 94.4 |
| OCCCSc1ccc(N/C=N/O)cc1 [Comp. 459] | 108 to 108.5 °C | 2.4 nM | 119.0 |

Continued, in another order:

| melting point | IC50 [1] | Compound | Inhibition rate (1 μM) [1] |
| --- | --- | --- | --- |
| > 300 °C | 3 nM | O=C([O-])CCCCCOc1ccc(N/C=N/O)cc1.[Na+] [Comp. 425] |  |
| 143.5 to 144.5 °C | 51.5 nM | O/N=C/Nc1ccc(OCCCN2CCCCC2)cc1 [Comp. 428] |  |
| 139.5 to 141 °C | 7.4 nM | N#CCCCOc1ccc(N/C=N/O)cc1 [Comp. 430] |  |
| 113 to 115 °C | 47.7 nM | O/N=C/Nc1ccc(OCCCCCN2CCCCC2)cc1 [Comp. 431] |  |
| 116.5 to 117.5 °C | 19.5 nM | O/N=C/Nc1ccc(OCCCCCN2CCCC2)cc1 [Comp. 432] |  |
| 125 to 127 °C | 1.5 nM | CCOC(=O)CCCCOc1ccc(N/C=N/O)cc1 [Comp. 433] |  |
| > 300 °C | 3.2 nM | O=C([O-])CCCCOc1ccc(N/C=N/O)cc1.[Na+] [Comp. 434] |  |
